Data as given in the supplement of paper PMC11451515.

How the values were obtained:
Conditions in all cases: 48 h
NOMO1 = assay: AUC of viability dose-response curve (% viability x log10 dose units); higher = less sensitive
Outline: (§1)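 Leukemia cells adapted to each medium (500 or 1000 cells/well, 1536-well plates) were exposed to library compounds in DMSO for 48 h at 37°C at 11 threefold doses, 47 μM to 0.79 nM. Luminescence by CellTiter-Glo One was normalised per plate to DMSO and cell-free wells, then fitted with a four-parameter log-logistic curve on log10 dose. Curves above full viability were scaled and quality-control failures removed before area under the curve was integrated by trapezoidal rule.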

P12-Ichikawa = assay: as above
Outline: as §1

SEM cells [1] = assay: as above
Outline: as §1

SEM cells [2] = assay: cell viability relative to DMSO control; higher = less cytotoxic
Outline: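 Leukemia cells (NOMO1 or SEM, 500 cells/well; P12-Ichikawa, 1000 cells/well) were seeded in 5 μl in 1536-well plates after at least four passages of adaptation to each medium. They received library compounds in DMSO by pin dosing, 11 threefold points from 47 μM to 0.79 nM. Luminescence with CellTiter-Glo One was read after 48 h at 37°C. Viability is stated per plate relative to DMSO wells, with cell-free wells as background.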

CN[C@H](CC(C)C)C(=O)N[C@H]1C(=O)N[C@@H](CC(N)=O)C(=O)N[C@H]2C(=O)N[C@H]3C(=O)N[C@H](C(=O)N[C@H](C(=O)O)c4cc(O)cc(O)c4-c4cc3ccc4O)[C@H](O)c3ccc(c(Cl)c3)Oc3cc2cc(c3O[C@@H]2O[C@H](CO)[C@@H](O)[C@H](O)[C@H]2O[C@H]2C[C@](C)(N)[C@H](O)[C@H](C)O2)Oc2ccc(cc2Cl)[C@H]1O
AUC of viability dose-response curve
Conditions	NOMO1	P12-Ichikawa	SEM cells [1]
HPLM + 10% dialyzed FBS	439	457	463
RPMI 5 mM glucose + 10% FBS	468	462	458
RPMI 5 mM glucose + 10% dialyzed FBS	475	454	473

cell viability [%], SEM cells [2]
Conditions	HPLM + 10% dialyzed FBS	RPMI 5 mM glucose + 10% FBS	RPMI 5 mM glucose + 10% dialyzed FBS
0.000781 µM	94.2	127	112
0.00234 µM	94.3	114	126
0.00702 µM	124	120	125
0.0211 µM	112	130	138
0.0632 µM	125	144	126
0.19 µM	111	143	114
0.569 µM	128	148	131
1.71 µM	89	126	95.9
5.12 µM	126	138	138
15.4 µM	129	131	118
46.1 µM	122	142	110

CN1[C@@H]2CCC[C@H]1C[C@@H](NC(=O)c1nn(C)c3ccccc13)C2.Cl
AUC of viability dose-response curve
Conditions	NOMO1	P12-Ichikawa	SEM cells [1]
HPLM + 10% dialyzed FBS	468	463	468
RPMI 5 mM glucose + 10% FBS	466	444	434
RPMI 5 mM glucose + 10% dialyzed FBS	465	465	457

SEM cells [2], HPLM + 10% dialyzed FBS
Conditions	cell viability [%]
0.000781 µM	112
0.00234 µM	110
0.00702 µM	126
0.0211 µM	115
0.0632 µM	126
0.19 µM	123
0.569 µM	124
1.71 µM	125
5.12 µM	133
15.4 µM	119
46.1 µM	115

CN1C(=O)C(Cc2c[nH]c3ccccc23)NC1=S (stereo not given)
AUC of viability dose-response curve
Conditions	NOMO1	P12-Ichikawa	SEM cells [1]
HPLM + 10% dialyzed FBS	467	458	437
RPMI 5 mM glucose + 10% FBS	448	450	405
RPMI 5 mM glucose + 10% dialyzed FBS	451	461	422

COCCCOc1cc(C[C@@H](C[C@H](N)[C@@H](O)C[C@H](C(=O)NCC(C)(C)C(N)=O)C(C)C)C(C)C)ccc1OC
AUC of viability dose-response curve
Conditions	NOMO1	P12-Ichikawa	SEM cells [1]
HPLM + 10% dialyzed FBS	457	473	473
RPMI 5 mM glucose + 10% FBS	474	471	461
RPMI 5 mM glucose + 10% dialyzed FBS	461	475	458
